The results in this text go back to patent US20250092050A1, “1-AMINOBENZO[4,5]IMIDAZO[1,2-A]PYRAZINE-3-FORMAMIDE COMPOUND, AND PREPARATION THEREFOR AND USE THEREOF” (SUN YAT-SEN UNIVERSITY, priority 2022, published 2025).

Read-outs that look alike come from different tables or passages of the source.

In the test the target is adenosine A2A receptor (Homo sapiens, UniProt P29274). As to the kind of experiment: Binding to the adenosine A2A receptor: displacement of radioligand [3H]-ZM241385 from membrane protein. The note with it: compound 10^-4 M, 1 nM [3H]-ZM241385. On the procedure:
The specific process was as follows: A membrane protein solution (60 μg/tube, containing ADA 2 mg/mL) and a radioligand 1 nM [3H]-ZM241385 were added to each tube. Different compounds with the concentration of 10^−4 M were added into the compound tubes respectively, shaken to mix uniformly, incubated at 37° C. for 30 minutes and the reaction was terminated in a water bath. Free and bound ligands were separated by suction filtration under negative pressure using GF/C glass fiber filter paper, washed three times with precooled 50 mM Tris-HCl, about 4 mL each time. Film was removed and placed upside down on the tray (i.e., with the grid side facing up), and baked for 3 minutes until dried. Dried small circular filter membrane was put into the liquid scintillation tube in sequence, and 2 mL of scintillation solution was added. [3H] count was then performed in a Multifunction Liquid Scintillation Counter. Each junction point was provided with triple tubes. and the average value was taken. Finally. data analysis was carried out to calculate the inhibition rate of the compound on the adenosine AzA receptor: […]

Setting [1] is: membrane protein 60 μg/tube, 37° C., 30 minutes, average of triple tubes, read-out: Adenosine A2A receptor inhibition rate.
Setting [2] is: read-out: inhibition rate on adenosine A2A receptors (text summary of Table 1).

Sequence of adenosine A2A receptor (P29274 whole entry): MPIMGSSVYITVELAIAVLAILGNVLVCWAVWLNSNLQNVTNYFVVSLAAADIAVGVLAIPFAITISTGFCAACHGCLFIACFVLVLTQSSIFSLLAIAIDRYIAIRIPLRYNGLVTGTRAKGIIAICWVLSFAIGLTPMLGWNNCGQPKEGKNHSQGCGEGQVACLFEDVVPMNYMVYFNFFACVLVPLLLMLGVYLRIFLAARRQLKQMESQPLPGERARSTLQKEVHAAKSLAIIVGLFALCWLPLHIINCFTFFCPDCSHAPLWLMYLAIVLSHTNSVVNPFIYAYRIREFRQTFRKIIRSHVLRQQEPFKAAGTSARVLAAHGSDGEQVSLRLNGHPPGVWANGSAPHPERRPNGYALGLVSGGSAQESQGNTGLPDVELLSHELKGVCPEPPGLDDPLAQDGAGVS

Regarding `Nc1nc(C(=O)NCCO)cn2c1nc1ccccc12` [Compound 14f], under setting [1], the inhibition (commonly the percentage by which the read-out fell short of the control) at 100 µM amounted to 65.6 ± 4.23%.

Consider `CCCCCNC(=O)c1cn2c(nc3ccccc32)c(N)n1` [Compound 14b], for which the inhibition at 100 µM under setting [1] amounted to 71 ± 4.02%.

Regarding `CC(NC(=O)c1cn2c(nc3ccccc32)c(N)n1)c1cccc2cccnc12` (stereo not drawn) [Compound 14v], the inhibition at 100 µM under setting [1] was 61.6 ± 3.91%.

Consider `CC(NC(=O)c1cn2c(nc3ccccc32)c(N)n1)c1cccc2cccnc12` (stereo not drawn) [Compound 14w], for which the “Adenosine A2A receptor inhibition rate” value (membrane protein 60 μg/tube, 37° C., 30 minutes, average of triple tubes) came out at 78.27 ± 2.31%. In addition, under setting [2], the inhibition at 100 µM is above 70%.

In the case of `CC(C)(NC(=O)c1cn2c(nc3ccccc32)c(N)n1)c1ccccn1` [Compound 14x], the inhibition at 100 µM by setting is: under setting [1], 75.3 ± 4.07%; under setting [2], above 70%.

As to `CC(NC(=O)c1cn2c(nc3ccccc32)c(N)n1)c1ccccn1` (stereo not drawn) [Compound 14u], the inhibition at 100 µM is 86.5 ± 1.02% under setting [1] and above 80% under setting [2].
